Earlier results, collected in patent US20120121653A1, “Novel mometasone compositions and methods of making and using the same” (Elan Pharma International Limited, priority 2005, published 2012).
Read-outs that look alike come from different tables or passages of the source.

Assays:
[1] = not given; remark: listed apart in the source

partition coefficient between octanol and water: greater than 5000
solubility ([1]; in acetone): soluble
solubility ([1]; in chloroform): soluble
solubility ([1]; in ethanol): slightly soluble
solubility ([1]; in isopropanol): slightly soluble
solubility ([1]; in methanol): slightly soluble
solubility ([1]; in tetrahydrofuran): freely soluble
solubility ([1]; in water): practically insoluble
Structure (SMILES): C[C@@H]1C[C@H]2[C@@H]3CCC4=CC(=O)C=C[C@]4(C)[C@@]3(Cl)[C@@H](O)C[C@]2(C)[C@@]1(OC(=O)c1ccco1)C(=O)CCl [Mometasone furoate monohydrate, 9,21-Dichloro-11, β,17-di-hydroxy-16^α-methylpregna-1,4-diene-3 ,20-done 17-(2 furoate)]
